Experimental data published in US20210300940A1 (Merck Patent GmbH, priority 2018, published 2021).

Assays:
TLR8 = molecular target: T1, TLR8 (Homo sapiens, UniProt Q9NR97); experiment: HEK/293 TLR8 Cell Assay; format: cell-based; conditions: HEK cells, R848 agonist 30 uM final concentration, Steady-Glo readout; read-out: TLR8 potency
T1 construct: expressed in transfected cells; host or cells: HEK/293 reporter cells (NF-kB luciferase)
T1 sequence (Q9NR97 27-1041): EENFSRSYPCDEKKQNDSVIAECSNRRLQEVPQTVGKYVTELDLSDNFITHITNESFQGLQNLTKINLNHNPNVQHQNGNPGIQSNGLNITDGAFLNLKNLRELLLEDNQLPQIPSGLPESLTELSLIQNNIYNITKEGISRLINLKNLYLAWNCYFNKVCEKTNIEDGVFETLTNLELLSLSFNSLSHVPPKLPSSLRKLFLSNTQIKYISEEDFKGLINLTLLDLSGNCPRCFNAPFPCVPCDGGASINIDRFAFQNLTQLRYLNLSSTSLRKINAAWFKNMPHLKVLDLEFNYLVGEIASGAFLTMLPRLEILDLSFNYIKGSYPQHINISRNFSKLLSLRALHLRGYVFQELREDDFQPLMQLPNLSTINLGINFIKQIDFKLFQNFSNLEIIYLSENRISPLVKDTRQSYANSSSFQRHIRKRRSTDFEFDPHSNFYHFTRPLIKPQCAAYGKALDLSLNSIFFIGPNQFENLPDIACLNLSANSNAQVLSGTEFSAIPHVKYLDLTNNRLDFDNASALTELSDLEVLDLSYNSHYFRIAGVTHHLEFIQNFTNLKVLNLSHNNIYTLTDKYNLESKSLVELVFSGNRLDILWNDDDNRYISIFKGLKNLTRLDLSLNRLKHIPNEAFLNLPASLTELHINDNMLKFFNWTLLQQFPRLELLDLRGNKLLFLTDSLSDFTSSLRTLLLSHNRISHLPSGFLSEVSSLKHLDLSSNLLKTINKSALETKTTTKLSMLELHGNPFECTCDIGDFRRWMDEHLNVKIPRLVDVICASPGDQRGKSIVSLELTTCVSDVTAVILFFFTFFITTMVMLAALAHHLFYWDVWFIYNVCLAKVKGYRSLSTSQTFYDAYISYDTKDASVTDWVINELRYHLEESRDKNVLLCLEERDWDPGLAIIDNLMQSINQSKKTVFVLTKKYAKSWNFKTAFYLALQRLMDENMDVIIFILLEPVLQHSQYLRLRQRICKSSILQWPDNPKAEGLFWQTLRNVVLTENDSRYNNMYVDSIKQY
Protocol: (§1) Example 390: HEK/293 TLR8 Cell Assay Into 384 CulturePlates (Corning 3765) was placed 5000 c/w of […] in 30 uL DMEM without Phenol red (gibco #31053-028) and 10% heat inactivated fetal bovine serum, 1% penicillin-streptomycin, and 2 mM L-Glutamine. The cells were incubated for 24 h at 37° C., 10% carbon dioxide and 90% relative humidity. 3 uL of controls, standards, and compounds were dispensed into wells, incubated for 30 min then 3 uL of R848 agonist (30 uM final concentration) was added in 20 mM Hepes. After incubation for 5 hours, they were allowed to stand at room temperature for 15 min. To this was added 10 uL of Steady-Glo substrate reagent and shake assay plate for 5 min at 1500 rpm. The assay plate was allowed to sit for 30 min at room temperature and then the plate was read on EnVision.

TLR7 = molecular target: T2, TLR7 (Homo sapiens, UniProt Q9NYK1); experiment: HEK/293 TLR7 Cell Assay; format: cell-based; conditions: TLR7/NFKb HEK cells, R848 agonist 10 uM final concentration, Steady-Glo readout; read-out: TLR7 potency
T2 construct: expressed in transfected cells; host or cells: HEK/293 cells carrying TLR7 and an NF-kB luciferase reporter
T2 sequence (Q9NYK1 27-1049): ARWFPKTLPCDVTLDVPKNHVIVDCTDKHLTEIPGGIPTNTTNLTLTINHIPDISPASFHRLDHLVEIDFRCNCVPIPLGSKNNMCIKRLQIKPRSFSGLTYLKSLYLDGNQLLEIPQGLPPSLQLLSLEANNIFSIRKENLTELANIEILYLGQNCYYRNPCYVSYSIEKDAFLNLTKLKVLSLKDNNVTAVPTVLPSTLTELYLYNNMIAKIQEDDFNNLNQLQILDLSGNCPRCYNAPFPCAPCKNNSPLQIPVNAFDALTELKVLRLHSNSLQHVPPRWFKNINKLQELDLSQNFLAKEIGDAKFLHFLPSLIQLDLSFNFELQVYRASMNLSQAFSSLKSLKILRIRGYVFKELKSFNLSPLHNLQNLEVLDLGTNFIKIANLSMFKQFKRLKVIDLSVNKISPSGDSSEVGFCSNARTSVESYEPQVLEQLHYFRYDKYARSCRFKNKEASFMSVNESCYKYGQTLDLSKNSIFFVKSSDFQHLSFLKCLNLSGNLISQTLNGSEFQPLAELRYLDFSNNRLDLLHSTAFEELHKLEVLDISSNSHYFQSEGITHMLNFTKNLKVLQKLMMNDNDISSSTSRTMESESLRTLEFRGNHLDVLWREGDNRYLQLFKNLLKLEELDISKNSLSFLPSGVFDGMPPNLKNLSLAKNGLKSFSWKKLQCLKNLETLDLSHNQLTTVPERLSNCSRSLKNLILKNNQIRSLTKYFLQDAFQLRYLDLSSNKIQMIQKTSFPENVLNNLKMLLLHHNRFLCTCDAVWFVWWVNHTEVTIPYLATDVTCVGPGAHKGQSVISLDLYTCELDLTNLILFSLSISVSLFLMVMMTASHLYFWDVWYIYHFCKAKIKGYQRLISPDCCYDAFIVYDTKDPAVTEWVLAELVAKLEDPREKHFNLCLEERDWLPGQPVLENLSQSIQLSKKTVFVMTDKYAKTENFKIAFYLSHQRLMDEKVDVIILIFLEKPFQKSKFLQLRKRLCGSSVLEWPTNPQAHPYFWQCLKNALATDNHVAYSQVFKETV
Protocol: as §1, with “389:” for “390:”, “TLR7” for “TLR8”, “[…]” for “1%”, “(10” for “(30”

Row | SMILES | IC50 (TLR8) | IC50 (TLR7)
1 | N#Cc1ccc(N2C[C@@H](C(F)(F)F)O[C@@H](C(=O)N[C@H]3CNC[C@H]3F)C2)c2nccnc12 (single isomer, unassigned) [Example 303] | < 75 nM | < 75 nM
2 | N#Cc1ccc(N2C[C@@H](C(=O)N[C@H]3CNC[C@H]3F)O[C@@H](C(F)(F)F)C2)c2nccnc12 (single isomer, unassigned) [Example 304] | < 75 nM | < 75 nM
3 | N#Cc1ccc(N2C[C@@H](C(F)(F)F)O[C@@H](C(=O)NCC3(F)CCNCC3)C2)c2nccnc12 (single isomer, unassigned) [Example 305] | < 75 nM | < 75 nM
4 | N#Cc1ccc(N2C[C@@H](C(=O)NCC3(F)CCNCC3)O[C@@H](C(F)(F)F)C2)c2nccnc12 (single isomer, unassigned) [Example 306] | < 75 nM | < 75 nM
5 | N#Cc1ccc(N2C[C@@H](C(F)(F)F)O[C@@H](C(=O)NC[C@@]3(F)CCNC3)C2)c2nccnc12 (single isomer, unassigned) [Example 307] | < 75 nM | < 75 nM
6 | N#Cc1ccc(N2C[C@@H](C(=O)NC[C@@]3(F)CCNC3)O[C@@H](C(F)(F)F)C2)c2nccnc12 (single isomer, unassigned) [Example 308] | < 75 nM | < 75 nM
7 | N#Cc1ccc(N2C[C@@H](C(F)(F)F)O[C@@H](C(=O)NC[C@]3(F)CCNC3)C2)c2nccnc12 (single isomer, unassigned) [Example 309] | < 75 nM | < 75 nM
8 | N#Cc1ccc(N2C[C@@H](C(=O)NC[C@]3(F)CCNC3)O[C@@H](C(F)(F)F)C2)c2nccnc12 (single isomer, unassigned) [Example 310] | < 75 nM | < 75 nM
9 | N#Cc1ccc(N2C[C@@H](C(F)(F)F)O[C@@H](C(=O)N3C[C@@H](N)C4(CC4)C3)C2)c2nccnc12 (single isomer, unassigned) [Example 311] | < 75 nM | < 75 nM
10 | N#Cc1ccc(N2C[C@@H](C(=O)N3C[C@@H](N)C4(CC4)C3)O[C@@H](C(F)(F)F)C2)c2nccnc12 (single isomer, unassigned) [Example 312] | > 150 nM | < 75 nM
11 | N#Cc1ccc(N2C[C@@H](C(=O)NC[C@]3(F)CCNC3)O[C@@H](C(F)(F)F)C2)c2cccnc12 (single isomer, unassigned) [Example 313] | < 75 nM | < 75 nM
12 | N#Cc1ccc(N2C[C@@H](C(F)(F)F)O[C@@H](C(=O)NC[C@]3(F)CCNC3)C2)c2cccnc12 (single isomer, unassigned) [Example 314] | > 150 nM | > 150 nM
13 | N#Cc1ncc(N2C[C@@H](C(F)(F)F)O[C@@H](C(=O)NCC3(F)CCNCC3)C2)c2cccnc12 (single isomer, unassigned) [Example 317] | 75 to 150 nM | < 75 nM
14 | N#Cc1ncc(N2C[C@@H](C(=O)NCC3(F)CCNCC3)O[C@@H](C(F)(F)F)C2)c2cccnc12 (single isomer, unassigned) [Example 318] | > 150 nM | > 150 nM
15 | N#Cc1ncc(N2C[C@@H](C(=O)NC[C@]3(F)CCNC3)O[C@@H](C(F)(F)F)C2)c2cccnc12 (single isomer, unassigned) [Example 319] | < 75 nM | < 75 nM
16 | N#Cc1ncc(N2C[C@@H](C(F)(F)F)O[C@@H](C(=O)NC[C@]3(F)CCNC3)C2)c2cccnc12 (single isomer, unassigned) [Example 320] | > 150 nM | > 150 nM
17 | C[C@@H]1CN(c2ccc(C#N)c3nccnc23)C[C@H](C(=O)N[C@H]2CCN(CC3CC3)C2)O1 (single isomer, unassigned) [Example 322] | < 75 nM | < 75 nM
18 | C[C@@H]1CN(c2ccc(C#N)c3nccnc23)C[C@H](C(=O)NC[C@H]2CN(C)CCO2)O1 (single isomer, unassigned) [Example 324] | < 75 nM | < 75 nM
19 | C[C@@H]1CN(c2ccc(C#N)c3nccnc23)C[C@H](C(=O)NC[C@@H]2CN(C)CCO2)O1 (single isomer, unassigned) [Example 325] | < 75 nM | < 75 nM
20 | COC[C@H](O)CNC(=O)[C@H]1CN(c2ccc(C#N)c3nccnc23)C[C@@H](C)O1 (single isomer, unassigned) [Example 326] | < 75 nM | 75 to 150 nM
21 | COC[C@@H](O)CNC(=O)[C@H]1CN(c2ccc(C#N)c3nccnc23)C[C@@H](C)O1 (single isomer, unassigned) [Example 327] | < 75 nM | < 75 nM
22 | C[C@@H]1CN(c2cnc(C#N)c3ncccc23)C[C@H](CNC(=O)[C@@]2(F)CCN(C)C2)O1 (single isomer, unassigned) [Example 334] | < 75 nM | > 150 nM
23 | C[C@@H]1CN(c2cnc(C#N)c3ncccc23)C[C@H](CNC(=O)[C@]2(F)CCN(C)C2)O1 (single isomer, unassigned) [Example 335] | < 75 nM | 75 to 150 nM
24 | C[C@@H]1CN(c2cnc(C#N)c3ncccc23)C[C@H](CNC(=O)[C@@]2(F)CCNC2)O1 (single isomer, unassigned) [Example 336] | < 75 nM | < 75 nM
25 | C[C@@H]1CN(c2cnc(C#N)c3ncccc23)C[C@H](CNC(=O)[C@]2(F)CCNC2)O1 (single isomer, unassigned) [Example 337] | < 75 nM | < 75 nM
26 | C[C@@H]1CN(c2cnc(C#N)c3ncccc23)C[C@H](CNC(=O)[C@@]2(F)CCCNC2)O1 (single isomer, unassigned) [Example 338] | < 75 nM | < 75 nM
